Assay results reported in publication PMC8234244, “Virtual Evolution of HVEM Segment for Checkpoint Inhibitor Discovery” (International Journal of Molecular Sciences, 2021).
Residues, ends and D or L forms follow the SMILES beside them.

T1: BTLA-Fc (Homo sapiens, UniProt Q7Z6A9)
T1 construct: Fc
T1 sequence (Q7Z6A9 31-157 limits assumed): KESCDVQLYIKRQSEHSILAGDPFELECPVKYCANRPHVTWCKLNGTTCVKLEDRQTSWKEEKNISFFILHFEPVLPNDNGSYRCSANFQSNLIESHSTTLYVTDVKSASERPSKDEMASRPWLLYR

T2: recombinant BTLA-Fc protein (B and T lymphocyte attenuator) (UniProt Q7Z6A9 31-137)
T2 construct: B and T lymphocyte attenuator (BTLA); source: recombinant
T2 sequence: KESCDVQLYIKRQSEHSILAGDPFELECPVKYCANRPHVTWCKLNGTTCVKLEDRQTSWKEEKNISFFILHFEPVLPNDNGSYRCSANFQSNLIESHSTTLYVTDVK


system: BTLA/HVEM binding (BTLA-Fc coated, HVEM-biotin); assay: Competitive ELISA, peptides against Biotin-HVEM for BTLA; details: 1 mg/mL peptide, 12 h at room temperature; peptides with response value under 85% of the control were selected; absorbance 630 nm
Source text: Though computational methods provided certain guidelines for picking the mutations, they are not 100% accurate since simplified models were used, like ignoring the possible conformation changes caused by mutations. Thus, the wet-lab examination is necessary to confirm their inhibition effects. The library containing predicted peptides was synthesized by solid phase peptide synthesis (SPPS) method with Fmoc strategy. We used competitive ELISA for the screen to ensure the positive peptides selectively binds in situ on the BTLA/HVEM interface. Biotin-HVEM was used as the signal reporter. Peptides with strong binding of BTLA will compete with Biotin-HVEM and result in lower signal. A primary screen was carried out by using 1 mg/mL of each peptide and those with response value under 85% of the control were selected for further characterization (Figure 2a).
96-well EIA/RIA plates (High Binding, Corning Incorporated) were coated with 350 ng/well of recombinant BTLA-Fc protein in PBS (50 µL/well), incubating at 37 °C overnight until the solutions evaporate completely. Methanol was added for protein fixation and the wells were blocked with 5% BSA in PBS (200 µL/well). The peptides in DMSO were diluted into 1 mg/mL in PBS (50 µL/well) and incubated 12 h at room temperature. Wells were washed six times with PBST (phosphate buffer saline with 0.1% Tween-20, pH 7.4). Different concentrations of recombinant HVEM-biotin protein (50 µL/well) was added and incubated for 2 h at room temperature. Wells were washed six times with PBS. Horseradish peroxidase (HRP) labeled Streptavidin was finally added at a 1/5000 dilution in PBS and incubated for 2 h at room temperature. 3, 3′, 5, 5′,-tetramethylbenzidine (TMB, Beyotime) was used for color development. The absorbance was read at 630 nm using Microplate Reader. Statistical analysis of the results was performed using GraphPad Prism 7 software.

| Molecule | Inhibition in preliminary competitive ELISA screen |
| --- | --- |
| CC(=O)N[C@@H](CCCCN)C(=O)N1CCC[C@H]1C(=O)N[C@@H](C)C(=O)N[C@@H](CS)C(=O)NCC(=O)N[C@@H](CCC(=O)O)C(=O)N[C@@H](CC(C)C)C(=O)N[C@H](C(=O)NCC(=O)N[C@H](C(=O)N[C@H](C(=O)N[C@@H](CS)C(=O)N[C@@H](Cc1ccccc1)C(N)=O)C(C)C)[C@@H](C)O)[C@@H](C)O [DP2] (Ac-KPACGELTGTVCF-NH2) | showed inhibition |
| Ac-KKACGELTGTVCF-NH2 [DP3, double mutant E27K E38F of HVEM (26–38)] | showed inhibition |
| Ac-KEACGDLTGTVCE-NH2 [SP6, single mutant E31D of HVEM (26–38)] | showed inhibition |
| Ac-KPACGELTGTVCE-NH2 [SP3, single mutant E27P of HVEM (26–38)] | showed inhibition |
| Ac-KEACGELPGTVCE-NH2 [SP7, single mutant T33P of HVEM (26–38)] | showed inhibition |

same assay, conditions: competitive ELISA, dose dependent; 1 mg/mL peptide, HVEM-biotin titrated; qualitative comparison

| Molecule | Inhibition of BTLA/HVEM binding, titration of peptide-BTLA with different concentrations of HVEM |
| --- | --- |
| Ac-KEACGELTGTVCE-NH2 [P0, reference compound] | demonstrated little inhibition |
| CC(=O)N[C@@H](CCCCN)C(=O)N1CCC[C@H]1C(=O)N[C@@H](C)C(=O)N[C@@H](CS)C(=O)NCC(=O)N[C@@H](CCC(=O)O)C(=O)N[C@@H](CC(C)C)C(=O)N[C@H](C(=O)NCC(=O)N[C@H](C(=O)N[C@H](C(=O)N[C@@H](CS)C(=O)N[C@@H](Cc1ccccc1)C(N)=O)C(C)C)[C@@H](C)O)[C@@H](C)O [DP2] (Ac-KPACGELTGTVCF-NH2) | showed the best inhibitory effects |
| CC(=O)N[C@@H](CCC(=O)O)C(=O)N[C@@H](CO)C(=O)N[C@@H](CS)C(=O)N1CCC[C@H]1C(=O)N[C@@H](CCCCN)C(=O)N[C@@H](CS)C(=O)N[C@@H](CO)C(=O)N1CCC[C@H]1C(=O)NCC(=O)N[C@@H](Cc1ccc(O)cc1)C(=O)N[C@@H](CCCNC(=N)N)C(=O)N[C@H](C(=O)N[C@@H](CCCCN)C(=O)N1CCC[C@H]1C(=O)N[C@@H](C)C(=O)N[C@@H](CS)C(=O)NCC(=O)N[C@@H](CCC(=O)O)C(=O)N[C@@H](CC(C)C)C(=O)N[C@H](C(=O)NCC(=O)N[C@H](C(=O)N[C@H](C(=O)N[C@@H](CS)C(=O)N[C@@H](Cc1ccccc1)C(=O)N1CCC[C@H]1C(N)=O)C(C)C)[C@@H](C)O)[C@@H](C)O)C(C)C [DP2-E2] (Ac-ESCPKCSPGYRVKPACGELTGTVCFP-NH2) | higher affinity than the native ones |
| CC(=O)N[C@@H](Cc1ccc(O)cc1)C(=O)N[C@@H](CCCNC(=N)N)C(=O)N[C@H](C(=O)N[C@@H](CCCCN)C(=O)N1CCC[C@H]1C(=O)N[C@@H](C)C(=O)N[C@@H](CS)C(=O)NCC(=O)N[C@@H](CCC(=O)O)C(=O)N[C@@H](CC(C)C)C(=O)N[C@H](C(=O)NCC(=O)N[C@H](C(=O)N[C@H](C(=O)N[C@@H](CS)C(=O)N[C@@H](Cc1ccccc1)C(=O)N1CCC[C@H]1C(N)=O)C(C)C)[C@@H](C)O)[C@@H](C)O)C(C)C [DP2-E1] (Ac-YRVKPACGELTGTVCFP-NH2) | higher affinity than the native ones |
| CC(=O)N[C@@H](CCC(=O)O)C(=O)N[C@@H](CO)C(=O)N[C@@H](CS)C(=O)N1CCC[C@H]1C(=O)N[C@@H](CCCCN)C(=O)N[C@@H](CS)C(=O)N[C@@H](CO)C(=O)N1CCC[C@H]1C(=O)NCC(=O)N[C@@H](Cc1ccc(O)cc1)C(=O)N[C@@H](CCCNC(=N)N)C(=O)N[C@H](C(=O)N[C@@H](CCCCN)C(=O)N[C@@H](CCC(=O)O)C(=O)N[C@@H](C)C(=O)N[C@@H](CS)C(=O)NCC(=O)N[C@@H](CCC(=O)O)C(=O)N[C@@H](CC(C)C)C(=O)N[C@H](C(=O)NCC(=O)N[C@H](C(=O)N[C@H](C(=O)N[C@@H](CS)C(=O)N[C@@H](CCC(=O)O)C(=O)N1CCC[C@H]1C(N)=O)C(C)C)[C@@H](C)O)[C@@H](C)O)C(C)C [P0-E2, reference compound] (Ac-ESCPKCSPGYRVKEACGELTGTVCEP-NH2; N-terminus and C-terminus assumed) | more potency than P0 |

target: T1, BTLA-Fc; assay: Surface plasmon resonance (SPR), binding of peptides to BTLA; details: qualitative statement in running text
Method: The SPR assay was conducted using Biacore T100 system with Sensor Chip CM5 (Cytiva, Marlborough, MA, USA). BTLA-Fc was conjugated to the chips with EDC/NHS coupling in NaAc buffer. The assay was performed in PBS buffer with 2% DMSO. The buffer calibration was conducted by mixing different volume of buffers with 1.5% or 2.8% DMSO. Various concentrations of the peptides were injected and flow through the chip at 30 µL/min. The signals were recorded and analyzed with either static (for fast dissociation) or kinetic (for slow dissociation) model.

| Molecule | Binding to BTLA in words |
| --- | --- |
| Ac-KEACGELTGTVCE-NH2 [P0, reference compound] | can barely bind to BTLA |
| CC(=O)N[C@@H](Cc1ccc(O)cc1)C(=O)N[C@@H](CCCNC(=N)N)C(=O)N[C@H](C(=O)N[C@@H](CCCCN)C(=O)N1CCC[C@H]1C(=O)N[C@@H](C)C(=O)N[C@@H](CS)C(=O)NCC(=O)N[C@@H](CCC(=O)O)C(=O)N[C@@H](CC(C)C)C(=O)N[C@H](C(=O)NCC(=O)N[C@H](C(=O)N[C@H](C(=O)N[C@@H](CS)C(=O)N[C@@H](Cc1ccccc1)C(=O)N1CCC[C@H]1C(N)=O)C(C)C)[C@@H](C)O)[C@@H](C)O)C(C)C [DP2-E1] (Ac-YRVKPACGELTGTVCFP-NH2) | binds slightly tighter than P0-E1, however weaker than DP2 |

same assay, conditions: value as stated in running text

| Molecule | Kd [µM] |
| --- | --- |
| CC(=O)N[C@@H](Cc1ccc(O)cc1)C(=O)N[C@@H](CCCNC(=N)N)C(=O)N[C@H](C(=O)N[C@@H](CCCCN)C(=O)N[C@@H](CCC(=O)O)C(=O)N[C@@H](C)C(=O)N[C@@H](CS)C(=O)NCC(=O)N[C@@H](CCC(=O)O)C(=O)N[C@@H](CC(C)C)C(=O)N[C@H](C(=O)NCC(=O)N[C@H](C(=O)N[C@H](C(=O)N[C@@H](CS)C(=O)N[C@@H](CCC(=O)O)C(=O)N1CCC[C@H]1C(N)=O)C(C)C)[C@@H](C)O)[C@@H](C)O)C(C)C [P0-E1] (Ac-YRVKEACGELTGTVCEP-NH2) | 9000 |

target: T2, recombinant BTLA-Fc protein (B and T …); assay: SPR; Biacore T100, CM5 chip; BTLA-Fc coupled by EDC/NHS; peptides injected at 30 µL/min in PBS with 2% DMSO; static (fast dissociation) or kinetic (slow dissociation) model; details: both partners purified

| Molecule | Kd [µM] |
| --- | --- |
| Ac-KPACGELTGTVCF-NH2 (cysteine pairing not given here, HVEM residues 26-38 with E27P and E38F; source: synthetic peptide (SPPS, Fmoc; Jiangsu Shenlang Biotech)) [DP2 E27P E38F] | 1750 |
| Ac-ESCPKCSPGYRVKPACGELTGTVCFP-NH2 (cysteine pairing not given here, HVEM residues 14-39 with the DP2 mutations E27P and E38F; also called extended DP2 (26 aa); source: synthetic peptide (SPPS, Fmoc; Jiangsu Shenlang Biotech)) [DP2-E2] | 0.00146 |
| Ac-YRVKEACGELTGTVCEP-NH2 (cysteine pairing not given here) [P0-E1] | 9930 |
| Ac-ESCPKCSPGYRVKEACGELTGTVCEP-NH2 (cysteine pairing not given here) [P0-E2] | 94.1 |
| Ac-YRVKPACGELTGTVCFP-NH2 (cysteine pairing not given here, HVEM residues 23-39 with the DP2 mutations E27P and E38F; also called extended DP2 (17 aa); source: synthetic peptide (SPPS, Fmoc; Jiangsu Shenlang Biotech)) [DP2-E1] | 3040 |
